# Laboratory results from publication PMC3285241 (ACS chemical neuroscience, 2011).
# Where two headings read alike, the source gives them in different places.
# How the values were obtained:
# [1] = tested on: sodium channel site 2; assay: Ricerca Lead Profiling Screen, sodium channel site 2; assay type: binding; conditions: 10 μM
# [2] = Brain and plasma concentrations across the catalepsy dose range; assay type: in vivo; conditions: rat
# [3] = in vivo; conditions: male, Sprague-Dawley, rat, plasma, iv, 1 mg/kg
# [4] = in vitro; conditions: rat, liver microsomes, pH 7.4
# [5] = in vitro; conditions: human, plasma, pH 7.4
# [6] = target: P450 2C9 (Homo sapiens, UniProt P11712); assay: P450 inhibition 2C9
# [7] = tested on: T-type calcium currents in STN neurons; assay: Brain slice voltage clamp, T-type calcium current in STN neurons; assay type: cell-based, rat
# [8] = Plasma-brain exposure profile PK study; assay type: in vivo; conditions: male, Sprague-Dawley, rat, intraperitoneal, 10 mg/kg
# [9] = in vitro; conditions: rat, plasma, pH 7.4
# [10] = tested on: rebound burst activity in STN neurons; assay: Brain slice current clamp, rebound burst activity in STN neurons; assay type: cell-based, rat
# [11] = target: T1, P450 1A2 (Homo sapiens, UniProt P05177); assay: P450 inhibition 1A2
# T1 sequence (P05177 1-516): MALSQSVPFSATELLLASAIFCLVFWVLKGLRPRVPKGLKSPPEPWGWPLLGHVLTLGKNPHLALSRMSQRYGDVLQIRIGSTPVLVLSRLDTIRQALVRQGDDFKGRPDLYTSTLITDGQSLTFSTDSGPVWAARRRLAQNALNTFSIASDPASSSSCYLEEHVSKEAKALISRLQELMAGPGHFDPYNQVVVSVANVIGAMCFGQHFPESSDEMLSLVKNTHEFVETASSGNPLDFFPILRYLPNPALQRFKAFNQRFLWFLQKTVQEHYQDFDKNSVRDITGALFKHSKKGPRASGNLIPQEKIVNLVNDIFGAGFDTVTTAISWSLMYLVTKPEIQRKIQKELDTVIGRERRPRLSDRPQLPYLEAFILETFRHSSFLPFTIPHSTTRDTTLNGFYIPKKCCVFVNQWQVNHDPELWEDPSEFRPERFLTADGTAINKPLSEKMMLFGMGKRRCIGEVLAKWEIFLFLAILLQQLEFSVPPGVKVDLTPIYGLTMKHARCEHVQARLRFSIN
# [12] = tested on: 68 GPCRs, ion channels and transporters; assay: Ricerca Lead Profiling Screen; conditions: 10 μM; significant = inhibition of radio ligand binding > 50%
# [13] = target: sigma 1 (Homo sapiens, UniProt Q99720); assay: Ricerca Lead Profiling Screen, sigma 1; assay type: binding; conditions: 10 μM
# [14] = tested on: L-type calcium channels; assay: Ricerca Lead Profiling Screen, L-type calcium channel; assay type: binding; conditions: @10 μM
# [15] = target: hERG (Homo sapiens, UniProt Q12809); assay: Ricerca Lead Profiling Screen, hERG; assay type: binding
# [16] = target: Cav3.3 (Homo sapiens, UniProt Q9P0X4); assay: Cav3.3 IonWorks Quattro population patch clamp electrophysiology; assay type: cell-based
# [17] = target: P450 2D6 (Homo sapiens, UniProt P10635); assay: P450 inhibition 2D6
# [18] = tested on: low threshold spike (LTS) in STN neurons; assay: Brain slice current clamp, low threshold spike; assay type: cell-based, rat; conditions: 3 uM with 0.5 uM TTX, n = 5; control 18.1 ± 2.2 mV
# [19] = in vitro; conditions: human, liver microsomes, pH 7.4
# [20] = target: Cav3.2 channel expressed in HEK293 cells (Homo sapiens, UniProt O95180); assay: T-type calcium channel cell-based FDSS Ca2+ flux
# [21] = target: N-type calcium channels (Rattus norvegicus, UniProt Q02294); assay: Ricerca Lead Profiling Screen, N-type calcium channel; assay type: binding; conditions: read-out: % inhibition, N-type calcium channels
# [22] = Intrinsic clearance in rat liver microsomes; conditions: obtained from rat liver microsomes
# [23] = tested on: haloperidol-induced catalepsy in rats; assay: Haloperidol-induced catalepsy; assay type: in vivo, rat; conditions: 1, 3, 10 and 30 mg/kg p.o.; haloperidol 0.75 mg/kg; comparable to A2A inhibitor 56.6 mg/kg p.o.
# [24] = no reference given; cited from earlier work
# [25] = target: Cav3.2 (Homo sapiens, UniProt O95180); assay: Cav3.2 IonWorks Quattro population patch clamp electrophysiology; assay type: cell-based; conditions: Cav3 subtype not stated
# [26] = read-out: IC50 in Ca2+ fluorescence assay, Cav3.2 HEK293, full CRC
# Cav3.2 channel expressed in HEK293 cells, sequence (O95180 whole entry): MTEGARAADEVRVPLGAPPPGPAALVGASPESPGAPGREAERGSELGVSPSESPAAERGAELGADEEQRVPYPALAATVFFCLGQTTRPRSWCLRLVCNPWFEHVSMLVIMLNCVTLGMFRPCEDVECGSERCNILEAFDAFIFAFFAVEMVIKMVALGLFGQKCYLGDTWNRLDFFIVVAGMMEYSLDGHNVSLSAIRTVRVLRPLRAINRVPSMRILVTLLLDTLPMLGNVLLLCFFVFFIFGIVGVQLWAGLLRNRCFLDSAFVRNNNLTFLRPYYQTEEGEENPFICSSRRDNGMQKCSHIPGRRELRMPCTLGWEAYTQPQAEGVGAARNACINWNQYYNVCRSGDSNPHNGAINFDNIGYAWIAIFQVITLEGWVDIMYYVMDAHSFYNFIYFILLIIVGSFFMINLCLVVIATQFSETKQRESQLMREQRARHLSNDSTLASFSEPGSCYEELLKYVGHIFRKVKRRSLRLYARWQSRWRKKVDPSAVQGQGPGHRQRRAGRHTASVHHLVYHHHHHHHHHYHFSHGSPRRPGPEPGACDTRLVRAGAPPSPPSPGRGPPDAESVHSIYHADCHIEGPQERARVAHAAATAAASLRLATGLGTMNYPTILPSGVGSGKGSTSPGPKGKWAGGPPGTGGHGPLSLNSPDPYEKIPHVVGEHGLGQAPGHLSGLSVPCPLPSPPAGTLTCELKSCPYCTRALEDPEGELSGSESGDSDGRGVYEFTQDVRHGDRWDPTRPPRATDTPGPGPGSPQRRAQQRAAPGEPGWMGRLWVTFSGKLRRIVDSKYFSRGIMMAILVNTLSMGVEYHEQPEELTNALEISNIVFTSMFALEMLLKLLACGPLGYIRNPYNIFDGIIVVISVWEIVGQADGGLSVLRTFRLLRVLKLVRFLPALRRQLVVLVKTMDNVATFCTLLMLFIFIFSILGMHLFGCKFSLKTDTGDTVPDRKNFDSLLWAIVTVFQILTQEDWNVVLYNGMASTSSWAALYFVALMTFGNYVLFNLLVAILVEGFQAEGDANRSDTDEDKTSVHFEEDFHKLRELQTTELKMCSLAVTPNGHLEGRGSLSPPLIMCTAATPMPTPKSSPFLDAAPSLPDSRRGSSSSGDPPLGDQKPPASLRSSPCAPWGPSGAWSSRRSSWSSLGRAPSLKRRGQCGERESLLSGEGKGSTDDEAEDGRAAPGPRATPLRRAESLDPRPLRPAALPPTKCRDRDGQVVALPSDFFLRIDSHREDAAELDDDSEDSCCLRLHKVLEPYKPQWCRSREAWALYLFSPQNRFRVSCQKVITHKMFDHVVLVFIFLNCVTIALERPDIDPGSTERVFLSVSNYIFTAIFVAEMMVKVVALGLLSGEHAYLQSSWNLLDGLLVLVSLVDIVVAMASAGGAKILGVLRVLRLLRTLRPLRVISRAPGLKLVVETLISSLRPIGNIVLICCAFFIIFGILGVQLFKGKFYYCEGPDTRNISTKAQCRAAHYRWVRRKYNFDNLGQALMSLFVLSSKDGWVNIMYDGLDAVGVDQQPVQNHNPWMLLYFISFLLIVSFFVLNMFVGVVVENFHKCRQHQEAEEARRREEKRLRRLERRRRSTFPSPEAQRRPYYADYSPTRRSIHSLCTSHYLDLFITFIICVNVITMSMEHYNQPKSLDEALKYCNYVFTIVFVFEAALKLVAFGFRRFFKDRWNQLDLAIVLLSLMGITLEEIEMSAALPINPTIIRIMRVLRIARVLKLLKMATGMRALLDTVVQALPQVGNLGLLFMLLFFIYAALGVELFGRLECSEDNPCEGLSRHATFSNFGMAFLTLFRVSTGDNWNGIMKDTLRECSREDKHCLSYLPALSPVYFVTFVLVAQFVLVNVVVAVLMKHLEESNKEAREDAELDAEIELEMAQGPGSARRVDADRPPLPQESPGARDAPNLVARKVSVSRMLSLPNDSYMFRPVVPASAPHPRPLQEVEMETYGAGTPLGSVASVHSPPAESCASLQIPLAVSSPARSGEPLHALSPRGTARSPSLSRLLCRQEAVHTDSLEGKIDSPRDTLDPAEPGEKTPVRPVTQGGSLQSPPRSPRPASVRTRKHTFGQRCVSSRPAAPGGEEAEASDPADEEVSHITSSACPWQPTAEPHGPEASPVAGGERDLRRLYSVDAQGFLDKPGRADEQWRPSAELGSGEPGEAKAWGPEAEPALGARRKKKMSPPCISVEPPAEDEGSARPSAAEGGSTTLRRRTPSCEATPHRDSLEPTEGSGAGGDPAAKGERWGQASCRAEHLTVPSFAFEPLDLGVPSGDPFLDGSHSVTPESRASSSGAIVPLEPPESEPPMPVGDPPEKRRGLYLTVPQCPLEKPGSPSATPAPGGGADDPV
# Cav3.3, sequence (Q9P0X4 whole entry, species assumed): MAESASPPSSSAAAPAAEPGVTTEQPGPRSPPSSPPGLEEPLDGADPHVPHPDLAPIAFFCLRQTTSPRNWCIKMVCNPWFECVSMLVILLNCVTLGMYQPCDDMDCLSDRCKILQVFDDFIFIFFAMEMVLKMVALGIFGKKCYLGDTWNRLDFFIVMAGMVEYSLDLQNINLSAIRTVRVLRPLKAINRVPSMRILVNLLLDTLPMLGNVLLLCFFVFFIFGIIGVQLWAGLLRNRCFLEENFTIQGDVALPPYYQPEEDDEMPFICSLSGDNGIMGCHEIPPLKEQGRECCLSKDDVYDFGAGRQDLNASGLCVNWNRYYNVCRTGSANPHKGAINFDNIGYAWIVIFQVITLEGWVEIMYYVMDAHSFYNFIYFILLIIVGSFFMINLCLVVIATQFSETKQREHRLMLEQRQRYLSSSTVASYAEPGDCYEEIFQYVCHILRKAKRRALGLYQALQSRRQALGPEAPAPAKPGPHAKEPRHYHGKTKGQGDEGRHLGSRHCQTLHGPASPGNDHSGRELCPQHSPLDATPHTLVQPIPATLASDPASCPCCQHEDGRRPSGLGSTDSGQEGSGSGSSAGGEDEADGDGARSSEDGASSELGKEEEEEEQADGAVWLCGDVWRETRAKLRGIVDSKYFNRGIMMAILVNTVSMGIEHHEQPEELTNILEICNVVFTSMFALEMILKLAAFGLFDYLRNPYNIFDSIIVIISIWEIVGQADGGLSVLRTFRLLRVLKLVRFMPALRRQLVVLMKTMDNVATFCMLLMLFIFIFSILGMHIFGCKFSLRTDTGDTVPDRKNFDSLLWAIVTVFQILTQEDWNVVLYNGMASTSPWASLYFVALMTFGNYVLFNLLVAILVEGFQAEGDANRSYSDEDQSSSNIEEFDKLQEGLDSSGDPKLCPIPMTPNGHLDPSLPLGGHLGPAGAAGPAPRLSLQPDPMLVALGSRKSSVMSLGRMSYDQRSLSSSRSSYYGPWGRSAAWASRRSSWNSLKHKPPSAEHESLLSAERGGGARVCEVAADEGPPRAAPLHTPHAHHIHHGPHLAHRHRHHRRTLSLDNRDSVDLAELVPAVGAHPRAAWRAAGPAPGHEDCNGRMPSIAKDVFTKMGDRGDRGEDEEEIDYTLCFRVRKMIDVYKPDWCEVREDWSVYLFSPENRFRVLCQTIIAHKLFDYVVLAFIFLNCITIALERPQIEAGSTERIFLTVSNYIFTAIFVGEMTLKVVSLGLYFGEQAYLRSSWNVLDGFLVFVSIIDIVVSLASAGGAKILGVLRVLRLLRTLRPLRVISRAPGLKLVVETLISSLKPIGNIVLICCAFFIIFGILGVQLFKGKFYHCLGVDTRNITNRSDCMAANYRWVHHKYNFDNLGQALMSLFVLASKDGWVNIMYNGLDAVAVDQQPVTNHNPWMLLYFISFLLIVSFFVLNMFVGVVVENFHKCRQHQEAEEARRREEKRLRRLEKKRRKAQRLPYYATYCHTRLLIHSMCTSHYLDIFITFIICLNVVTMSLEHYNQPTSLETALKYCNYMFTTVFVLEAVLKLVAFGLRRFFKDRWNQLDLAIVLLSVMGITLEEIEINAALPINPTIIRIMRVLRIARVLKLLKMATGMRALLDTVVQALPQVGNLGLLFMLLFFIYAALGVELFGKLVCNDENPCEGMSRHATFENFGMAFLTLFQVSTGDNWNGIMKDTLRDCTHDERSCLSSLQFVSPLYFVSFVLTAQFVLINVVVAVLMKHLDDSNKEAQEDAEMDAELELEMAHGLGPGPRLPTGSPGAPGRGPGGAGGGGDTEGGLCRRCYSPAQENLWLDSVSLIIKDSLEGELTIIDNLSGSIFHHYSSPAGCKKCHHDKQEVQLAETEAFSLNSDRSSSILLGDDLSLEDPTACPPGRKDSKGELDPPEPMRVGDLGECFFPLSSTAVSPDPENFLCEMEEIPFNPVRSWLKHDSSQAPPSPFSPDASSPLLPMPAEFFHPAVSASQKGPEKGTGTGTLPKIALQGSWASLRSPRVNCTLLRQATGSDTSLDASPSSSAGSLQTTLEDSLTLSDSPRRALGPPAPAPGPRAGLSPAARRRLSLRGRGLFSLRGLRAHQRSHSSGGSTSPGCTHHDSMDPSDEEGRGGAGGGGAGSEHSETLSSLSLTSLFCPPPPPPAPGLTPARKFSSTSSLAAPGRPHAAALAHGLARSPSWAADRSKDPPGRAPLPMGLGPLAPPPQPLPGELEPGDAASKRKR
# P450 2D6, sequence (P10635 whole entry): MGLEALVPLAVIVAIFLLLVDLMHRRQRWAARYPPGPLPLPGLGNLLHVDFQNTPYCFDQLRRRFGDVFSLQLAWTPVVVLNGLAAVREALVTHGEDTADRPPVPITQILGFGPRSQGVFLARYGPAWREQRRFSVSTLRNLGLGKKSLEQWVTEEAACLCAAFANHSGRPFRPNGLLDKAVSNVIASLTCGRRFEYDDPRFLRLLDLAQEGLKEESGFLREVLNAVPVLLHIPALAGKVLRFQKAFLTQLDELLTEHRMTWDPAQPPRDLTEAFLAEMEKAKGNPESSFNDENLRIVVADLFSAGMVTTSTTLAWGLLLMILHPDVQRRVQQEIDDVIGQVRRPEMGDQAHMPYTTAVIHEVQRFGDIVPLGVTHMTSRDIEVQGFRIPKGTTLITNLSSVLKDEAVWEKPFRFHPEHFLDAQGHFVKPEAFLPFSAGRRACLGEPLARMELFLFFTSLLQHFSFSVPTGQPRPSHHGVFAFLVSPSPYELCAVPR
# Cav3.2, sequence (O95180 whole entry): as the sequence (O95180 whole entry) above
smiles,measurement,setting,value
"CC(C)(C)CCN1CC2C(CNC(=O)c3cc(Cl)cc(Cl)c3)C2C1 (stereo not shown) [ML218, 3,5-dichloro-N-((3-(3,3-dimethylbutyl)-3-azabicyclo[3.1.0]hexan-6-yl)methyl)benzamide]",Binding to sodium channel site 2,[1],significantly bind
same,[brain],[2]; 3 mg/kg p.o.,1.66 µM
same,[plasma],[2]; 3 mg/kg p.o.,98 nM
same,[brain],[2]; 10 mg/kg p.o.,5.03 µM
same,[plasma],[2]; 10 mg/kg p.o.,282 nM
same,[brain],[2]; 30 mg/kg p.o.,17.7 µM
same,[plasma],[2]; 30 mg/kg p.o.,1200 nM
same,MRT,[3],~7 h
same,clearance,[3],56 mL/min/kg
same,half-life,[3],7 h
same,CLint scaled at 1 μM,[4],115 mL/min/kg
same,fraction unbound at 4 h,[5],0.033
same,IC50,[6],> 30 µM
same,"T-currents, % of the control value","[7]; 3 uM, n = 7",45.1 ± 5.1%
same,Reduction of T-type Ca2+ current,"[7]; 3 μM, voltage clamp, bath application",~ 45%
same,Kp,[8],7.4
same,fraction unbound at 4 h,[9],0.091
same,Depression of rebound burst activity,"[10]; 3 μM, -100 pA followed by depolarizing current",> 60%
same,Number of rebound spikes,"[10]; 3 uM, n = 6, control 16.0 ± 2.8 spikes/burst",5.7 ± 0.5 spikes/burst
same,IC50,[11],10.8 µM
same,Number of targets significantly bound in 68-assay panel,[12],only significantly bind two targets
same,Binding to sigma 1,[13],significantly bind
same,"% inhibition, L-type calcium channels",[14],17%
same,inhibition at 10 µM,[15],48%
same,IC50,[16],0.274 µM
same,IC50,[17],1.7 µM
same,Amplitude of LTS,[18],8.7 ± 2.1 mV
same,CLint scaled at 1 μM,[19],12.7 mL/min/kg
same,IC50,[20],0.15 µM
same,inhibition at 10 µM,[21],49%
same,predicted hepatic clearance CLHEP,[22],43 mL/min/kg
same,Reversal of haloperidol-induced catalepsy,[23],reversed cataleptic behavior
CC(C)(C)CCN1CCC[C@@H](NC(=O)COc2ccc(F)cc2Cl)C1 [CID45115614],"T-type Ca2+ channel inhibition, result in words",[20]; 3-amino piperidine library,devoid of activity
"COCC(=O)O[C@]1(CCN(C)CCCc2nc3ccccc3[nH]2)CCc2cc(F)ccc2[C@@H]1C(C)C [compound 3, mibefradil]",Penetration into CNS,[24],poor penetration into CNS
CC(C)(C)Cc1nnc(NC(=O)COc2ccc(Cl)cc2Cl)o1 [compound 18],IC50,[20]; [26],0.81 µM
same,"Potency in patch EP relative to Ca2+ fluorescence, in words",[25],significant right-shift in potency
CC(C)(C)CCN1CCC[C@H](NC(=O)COc2ccc(F)cc2Cl)C1 [compound 23],IC50,[20]; [26],2.4 µM
